Source: patent publication US20230181745A1, “ZINC COMPLEXES AND THEIR USES” (Demuris Limited, priority 2020, published 2023)

How the values were obtained:
[1] = molecular target: forkhead transcription factor, Foxo3a (Homo sapiens, UniProt O43524); settings: published by Kawahara et al., 2015; cited from earlier work
[2] = system: Schizosaccharomyces pombe; experiment: Filter disc assay on a lawn of S. pombe; format: cell-based; settings: for bioactivity against S. pombe (haloes/zones of inhibition), relative: zinc complexed versus zinc-free form, tested in parallel
Experimental: The silica powder with the S149 compound adsorbed onto it was divided into two equal portions of ˜7.5 g and each portion was used in normal phase “flash” chromatography using a Biotage™ Isolera™ machine and a Biotage™ KP-Sil 50 g column. A chloroform-methanol gradient was used to elute the bound material from the silica in which the percentage of methanol went from 0%-100%. No formic acid was added to the solvents as this degrades the bioactive compound. The eluate from the column was fractionated and the presence of the bioactive compound (S149) determined using the “Filter disc assay” method as described in the “Materials and Methods” of Lewis et al., 2017. The active fractions eluted from the two normal phase chromatography columns were pooled, and after removal of the solvent using a GeneVac™ Series U system equipped with a GeneVac™ VC3000TA condenser unit, the dried material was resuspended in 5 ml of methanol which was loaded onto a size exclusion column. The column was run at a flow rate of 1 ml/min with 1,200 ml of methanol and the eluate fractionated. The bioactive fractions, as determined using the “Filter disc assay” method as described in the “Materials and Methods” of Lewis et al., 2017, were pooled to give ˜15 ml of material which was diluted with 60 ml of water to give 75 ml of a 20% methanol solution. This was used in reverse phase chromatography using a Biotage™ Isolera™ chromatography machine in which the bioactive material was loaded by injection onto a C18 SNAP Ultra 12 g Biotage™ column and eluted using an acetonitrile-water gradient where the percentage of acetonitrile was increased from 20%-100%.
An example of the u.v. absorbance pattern (λ=254 nm) is shown in FIG. 1 and indicates the presence of four peaks labelled 0-3. An integrated fraction collector was used to peak-pick material and collect column eluate corresponding to the peaks which were then bioassayed using the “Filter disc assay” method as described in the “Materials and Methods” of Lewis el al., 2017.

Sequence of forkhead transcription factor, Foxo3a (O43524 whole entry): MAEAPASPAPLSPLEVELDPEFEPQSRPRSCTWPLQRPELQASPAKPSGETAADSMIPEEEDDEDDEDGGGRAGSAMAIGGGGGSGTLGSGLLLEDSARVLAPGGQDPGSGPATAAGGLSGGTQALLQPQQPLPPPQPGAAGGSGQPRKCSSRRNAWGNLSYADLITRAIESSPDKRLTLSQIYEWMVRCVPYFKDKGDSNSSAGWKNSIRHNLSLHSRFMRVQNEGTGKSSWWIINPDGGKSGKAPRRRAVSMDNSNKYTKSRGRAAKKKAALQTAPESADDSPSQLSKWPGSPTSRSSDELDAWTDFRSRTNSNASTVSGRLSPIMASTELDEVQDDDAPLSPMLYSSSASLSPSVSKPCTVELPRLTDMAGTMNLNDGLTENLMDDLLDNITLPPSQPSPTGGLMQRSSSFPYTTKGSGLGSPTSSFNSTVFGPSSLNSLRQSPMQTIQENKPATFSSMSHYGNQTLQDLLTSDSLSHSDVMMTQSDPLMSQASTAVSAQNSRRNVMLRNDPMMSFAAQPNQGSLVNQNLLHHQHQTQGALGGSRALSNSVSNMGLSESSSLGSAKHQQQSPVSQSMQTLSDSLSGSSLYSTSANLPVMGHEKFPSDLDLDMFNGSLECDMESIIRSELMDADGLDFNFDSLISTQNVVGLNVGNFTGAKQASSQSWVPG

Row | Compound | inhibition of the transcriptional activity of Foxo3a [1] | time for haloes in the S. pombe lawn around impregnated discs to develop ([2]; filter discs impregnated with HPLC peak material) | bioactivity against S. pombe (haloes/zones of inhibition), relative [2] | bioactivity against S. pombe (haloes/zones of inhibition), relative ([2]; listed as JBIR 141) | bioactivity against S. pombe (haloes/zones of inhibition), relative ([2]; listed as Peak 0)
1 | CC(=O)O[C@@H]([C@H](CCCN(O)N=O)NC(=O)[C@H]1N=C([C@H](C)N(C)C)O[C@@H]1C)C(C)(C)C(=O)O[C@H](C(=O)C1=C(O)[C@H](C)N(C)C1=O)C(C)C [JBIR-141] | possess the ability to inhibit the transcriptional activity | ~48 h | not as bioactive as the zinc complexed form | not as bioactive as the zinc complexed form | lower than the bioactivity of the material from the other peaks
2 | CC(=O)O[C@@H]([C@H](C[C@@H](O)CN(O)N=O)NC(=O)[C@H]1N=C([C@H](C)N(C)C)O[C@@H]1C)C(C)(C)C(=O)O[C@H](C(=O)C1=C(O)[C@H](C)N(C)C1=O)C(C)C [JBIR-142] | possess the ability to inhibit the transcriptional activity |  |  |  | 
